The values that follow come from the NIST ThermoML archive (doi:10.1021/acs.jced.5b00535).

± gives the expanded uncertainty stated by the source.

For the data set the following is noted: 101.33 kPa, Liquid, Vibrating tube method.

Regarding `O` [water], the mass density (in general, mass per unit of volume) is on record as 988.035 ± 0.053 kg/m3 (323.15 K); 985.693 ± 0.055 kg/m3 (328.15 K); 983.196 ± 0.057 kg/m3 (333.15 K); 980.551 ± 0.059 kg/m3 (338.15 K); 977.765 ± 0.061 kg/m3 (343.15 K).
